The values that follow come from publication PMC8016481, “Tachykinin signaling inhibits task-specific behavioral responsiveness in honeybee workers” (eLife, 2021).

Where “and” joins values, the source holds several entries; their conditions need not be identical. Equal values may be shown once. Read-outs that look alike come from different tables or passages of the source. Ends that are not written are not given here.

Experiment [1] deals with TRP2-induced ERK1/2 phosphorylation. Put plainly: Effect of inhibitors on TRP2-induced ERK1/2 phosphorylation, HEK293 cells. The class given is cell-based, Homo sapiens.
The test system is the same in experiment [2]. Put plainly: Effect of inhibitors on TRP2-induced ERK1/2 phosphorylation, Sf21 cells. The class given is cell-based, Spodoptera frugiperda.
Experiment [3] relates to TRP2-mediated cAMP accumulation. In words: Effect of PTX, CTX, YM-254890 and H89 on TRP2-mediated cAMP accumulation, HEK293 cells expressing TRPR. The class given is cell-based, Homo sapiens.
Experiment [4] has as its system honeybee TRPR. Put plainly: Competitive binding of TRPs to TRPR in HEK293 cells (displacement of TAMRA-TRP2/TAMRA-TRP3). On the set-up: species or system Apis mellifera. The note with it: HEK293.
The test system of experiment [5] is honeybee TRPR. Put plainly: Competitive binding of TRPs to TRPR in Sf21 cells (displacement of TAMRA-TRP2/TAMRA-TRP3). On the set-up: species or system Apis mellifera.
In experiment [6] the test system is TRPR.
In experiment [7] the test system is TRPR. This is another data set of the same source.
Experiment [8] has as its system TRPR. The source holds these as a separate data set.
Experiment [9] has as its target honeybee tachykinin-related peptide receptor (FLAG-TRPR) expressed in HEK293 cells (Apis mellifera).
The target in experiment [10] is honeybee tachykinin-related peptide receptor (FLAG-TRPR) expressed in Sf21 cells (Apis mellifera).
Experiment [11] addresses honeybee tachykinin-related peptide receptor (FLAG-TRPR) expressed in HEK293 cells (Apis mellifera). This is another data set of the same source.
[12] abbreviates: HEK293, 2 hr pretreatment, then TRP2 (10 nM or 1 μM) for 10 min.
[13] abbreviates: Sf21, 2 hr pretreatment, then TRP2 (10 nM or 1 μM) for 10 min.

Chain of honeybee tachykinin-related peptide receptor (FLAG-TRPR) expressed in HEK293 cells (Apis mellifera) (A0ACM8RFV8 entry or part of it): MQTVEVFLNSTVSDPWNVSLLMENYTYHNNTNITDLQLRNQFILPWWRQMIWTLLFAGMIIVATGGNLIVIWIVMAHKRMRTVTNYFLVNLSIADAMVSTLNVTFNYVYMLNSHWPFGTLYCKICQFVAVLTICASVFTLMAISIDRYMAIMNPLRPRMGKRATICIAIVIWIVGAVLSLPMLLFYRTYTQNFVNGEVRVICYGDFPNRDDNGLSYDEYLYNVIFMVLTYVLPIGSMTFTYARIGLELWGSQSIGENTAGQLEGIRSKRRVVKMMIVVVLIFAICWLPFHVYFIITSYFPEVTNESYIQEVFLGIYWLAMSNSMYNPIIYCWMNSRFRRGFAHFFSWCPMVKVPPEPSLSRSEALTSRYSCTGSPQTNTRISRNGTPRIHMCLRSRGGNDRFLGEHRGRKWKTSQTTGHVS
Chain of honeybee tachykinin-related peptide receptor (FLAG-TRPR) expressed in Sf21 cells (Apis mellifera) (A0ACM8RFV8 entry or part of it): as above

For the molecule `COc1ccc2c(c1)c(C1=C(c3c[nH]c4ccccc34)C(=O)NC1=O)cn2CCCN(C)C` [Go6983], the “inhibition of TRP/TRPR-mediated ERK activation” value in experiment [1] (setting [12]) and in experiment [2] (setting [13]) was “significant inhibition” throughout.
Turning to `Cl.Cl.O=S(=O)(NCCNC/C=C/c1ccc(Br)cc1)c1cccc2cnccc12` [H89], the cAMP accumulation in experiment [3] (Suppl.3B, with TRP2, replicate 1) was found to be 18.636; in experiment [3] (Suppl.3B, with TRP2, replicate 2), 15.003; in [3] (Suppl.3B, with TRP2, replicate 3), 13.325; in experiment [3] (Suppl.3B, with ddH2O (no TRP2), replicate 1), 3.551; in [3] (Suppl.3B, with ddH2O (no TRP2), replicate 2) it was 2.309; in [3] (Suppl.3B, with ddH2O (no TRP2), replicate 3), 2.639. Also, the “inhibition of TRP/TRPR-mediated ERK activation” value in experiment [1] (setting [12]) and in experiment [2] (setting [13]) was “significant inhibition” throughout.
As for `N#CC(=C(/N)Sc1ccccc1N)/C(C#N)=C(/N)Sc1ccccc1N` [U0126], the “inhibition of TRP/TRPR-mediated ERK activation” value in [1] (setting [12]) and in experiment [2] (setting [13]) was “significant inhibition” throughout.
In the case of APMGFQGMRa [TRP3], the “competitive binding (residual TAMRA-TRP binding)” value with honeybee TRPR [4] (Log (M) -4, replicate 1) was determined as 5.1560; with honeybee TRPR [4] (Log (M) -4, replicate 2) it was 4.9306; with honeybee TRPR [4] (Log (M) -4, replicate 3) it was 5.6578; in the experiment with honeybee TRPR [4] (Log (M) -5, replicate 1) it was 9.5134; in the experiment with honeybee TRPR [4] (Log (M) -5, replicate 2), 5.2301; with honeybee TRPR [4] (Log (M) -5, replicate 3), 6.7532. In addition, the “competitive binding (residual TAMRA-TRP binding)” value in the experiment with honeybee TRPR [4] (Log (M) -6, replicate 1) came to 19.3191; in the experiment with honeybee TRPR [4] (Log (M) -6, replicate 2), 12.3643; in the experiment on honeybee TRPR [4] (Log (M) -6, replicate 3), 13.3614; with honeybee TRPR [4] (Log (M) -7, replicate 1), 23.7138; in the experiment on honeybee TRPR [4] (Log (M) -7, replicate 2), 20.6042; in the experiment with honeybee TRPR [4] (Log (M) -7, replicate 3) it was 26.4738. Besides, the “competitive binding (residual TAMRA-TRP binding)” value in the experiment on honeybee TRPR [4] (Log (M) -8, replicate 1) was 49.0125; with honeybee TRPR [4] (Log (M) -8, replicate 2), 48.4899; in the experiment with honeybee TRPR [4] (Log (M) -8, replicate 3), 40.9813; with honeybee TRPR [4] (Log (M) -9, replicate 1) it was 72.5758; in the experiment with honeybee TRPR [4] (Log (M) -9, replicate 2), 73.4731; in the experiment on honeybee TRPR [4] (Log (M) -9, replicate 3) it was 66.5477. Moreover, the “competitive binding (residual TAMRA-TRP binding)” value in the experiment on honeybee TRPR [4] (Log (M) -10, replicate 1) is listed as 84.1720; with honeybee TRPR [4] (Log (M) -10, replicate 2) it was 90.8395; in the experiment on honeybee TRPR [4] (Log (M) -10, replicate 3), 88.1290; in the experiment with honeybee TRPR [4] (Log (M) -11, replicate 1), 92.0860; in the experiment on honeybee TRPR [4] (Log (M) -11, replicate 2), 97.3869; in the experiment with honeybee TRPR [4] (Log (M) -11, replicate 3) it was 95.5950. The “competitive binding (residual TAMRA-TRP binding)” value stood at 93.1313 in the experiment on honeybee TRPR [4] (Log (M) -12, replicate 1); 100.0000 in the experiment on honeybee TRPR [4] (Log (M) -12, replicate 2); 92.9969 with honeybee TRPR [4] (Log (M) -12, replicate 3). The competitive binding in the experiment on honeybee TRPR [5] (Log (M) -4, replicate 1) amounted to 26.3879; in the experiment with honeybee TRPR [5] (Log (M) -4, replicate 2) it was 30.2236; in the experiment on honeybee TRPR [5] (Log (M) -4, replicate 3), 35.2235; with honeybee TRPR [5] (Log (M) -5, replicate 1), 39.1647; in the experiment with honeybee TRPR [5] (Log (M) -5, replicate 2), 34.4531; in the experiment with honeybee TRPR [5] (Log (M) -5, replicate 3), 41.6285. Moreover, the competitive binding came to 40.2510 in the experiment on honeybee TRPR [5] (Log (M) -6, replicate 1); 48.0008 with honeybee TRPR [5] (Log (M) -6, replicate 2); 38.3975 with honeybee TRPR [5] (Log (M) -6, replicate 3); 53.7851 with honeybee TRPR [5] (Log (M) -7, replicate 1); 58.0646 in the experiment with honeybee TRPR [5] (Log (M) -7, replicate 2); 56.8212 with honeybee TRPR [5] (Log (M) -7, replicate 3). Also, the competitive binding in the experiment with honeybee TRPR [5] (Log (M) -8, replicate 1) turned out to be 73.9138; in the experiment with honeybee TRPR [5] (Log (M) -8, replicate 2), 70.3389; with honeybee TRPR [5] (Log (M) -8, replicate 3), 76.0795; with honeybee TRPR [5] (Log (M) -9, replicate 1), 79.8334; in the experiment with honeybee TRPR [5] (Log (M) -9, replicate 2) it was 84.1204; in the experiment on honeybee TRPR [5] (Log (M) -9, replicate 3), 84.2025. Besides, the competitive binding came to 93.5892 with honeybee TRPR [5] (Log (M) -10, replicate 1); 92.3234 in the experiment with honeybee TRPR [5] (Log (M) -10, replicate 2); 96.9419 in the experiment on honeybee TRPR [5] (Log (M) -10, replicate 3); 93.4444 in the experiment with honeybee TRPR [5] (Log (M) -11, replicate 1); 100.0000 in the experiment with honeybee TRPR [5] (Log (M) -11, replicate 2); 96.2965 with honeybee TRPR [5] (Log (M) -11, replicate 3). The competitive binding with honeybee TRPR [5] (Log (M) -12, replicate 1) is 95.2946; in the experiment on honeybee TRPR [5] (Log (M) -12, replicate 2), 98.1256; in the experiment on honeybee TRPR [5] (Log (M) -12, replicate 3), 92.1545. Also, the “increase of cAMP levels” value in the experiment with TRPR [6] is on record as “more than 10 fold”. For the same molecule, the “intracellular Ca2+ levels” value with TRPR [7] is recorded as “rose sharply”.
As to cholera toxin [CTX], in [3], the cAMP accumulation is 18.981 and 16.723 and 16.035 and 22.197 and 20.493 and 23.072.
Regarding corazonin [CRZ, reference compound], the “cAMP accumulation” value in the experiment with TRPR [6] and in the experiment on TRPR [8] was “did not induce any detectable cAMP accumulation” in each case.
In the case of pertussis toxin [PTX], the “inhibition of TRP/TRPR-mediated ERK activation” value in experiment [1] and in experiment [2] was “had no effect” in each case.
“pigment-dispersing hormone [PDH, reference compound]”: the “cAMP accumulation” value in the experiment on TRPR [6] and with TRPR [8] was “did not induce any detectable cAMP accumulation” each time.
With “short neuropeptide F [SNF, reference compound]”, the “cAMP accumulation” value in the experiment with TRPR [6] and in the experiment with TRPR [8] was “did not induce any detectable cAMP accumulation” throughout.

B1: tachykinin-related peptide 2 (TRP2), unlabeled synthetic peptide (peptide)
peptide: ALMGFQGVR
modifications: ends and bridges not checked
With B1, the EC50 of ERK1/2 phosphorylation (Western blot) in HEK293 cells expressing TRPR, TRP2 from 0.1 pM to 1 μM for 10 min in experiment [9] stood at 68 nM. The EC50 of ERK1/2 phosphorylation (Western blot) in Sf21 cells expressing TRPR, TRP2 from 0.1 pM to 1 μM for 10 min in [10] stood at 1.68 nM. Also, the luciferase activity (pCRE-Luc reporter of cAMP) of HEK293 cells co-transfected with pFLAG-TRPR, 1 μM TRP2, against vehicle vector in [11] is more than 10 fold.

B2: tachykinin-related peptide 3 (TRP3), unlabeled synthetic peptide (peptide)
peptide: APMGFQGMR-NH2
Turning to B2, the luciferase activity (pCRE-Luc reporter of cAMP) of HEK293 cells co-transfected with pFLAG-TRPR, 1 μM TRP3, against vehicle vector in experiment [11] is more than 10 fold.
